What was measured:
Assay type in all cases: in vivo, mouse
Ucp1 = assay: Induction of Ucp1 and brown adipocytes in TA muscle (RT-qPCR, immunoblot, immunofluorescence, IHC)
Description: To investigate miR-133 function in brown adipose determination of satellite cells in vivo, Applicant synthesized miR-133 antagomiR (miR-133 antisense oligonucleotide (ASO)) with an antisense sequence to both miR-133a and miR-133b, as well as a control “antagomiR” (control ASO) with the same chemical modifications and not antisense to any mouse gene or EST sequence (see Experimental Procedures). Applicant performed lineage tracing to distinguish effects of miR-133 ASO on satellite cells versus other cell types. Six week old Pax7-CreER; R26R-tdTomato mice were treated with tamoxifin as before (5 consecutive daily injections), then aged to 10 weeks of age prior to initiating the experiment. Control ASO versus miR-133 ASO were injected into tibialis anterior (TA) muscles 3 days following saline injection (quiescent state) or cardiotoxin injection (to induce activation). After one month, RT-qPCR was performed using RNA isolated from several tissues to evaluate the efficacy and scope of miR-133 ASO administration.
To investigate whether miR-133 ASO was inducing satellite cells to undergo brown adipose determination in vivo, Applicant performed immunofluorescence microscopy on cross-sections prepared from regenerating TA muscles treated with control- or miR-133 ASO (FIG. 4C-D) Staining for Ucp1 and basal lamina-located Laminin confirmed Ucp1 staining only within miR-133 ASO treated regenerating muscles. […] In addition, Applicant observed that these interstitial cells were immunoreactive to Perilipin A, a marker for differentiated adipocytes, and nuclear Prdm16 (FIG. 4D).
To induce brown adipocytes in vivo, 10 mg/mL Cardiotoxin solution (50 μl) was intramuscularly injected into TA muscles of 10-week old Pax7-CreER/R26R-tdTomato mice (FIG. 4) or C57BL/6 mice (FIG. 5 and FIG. 6). Alternatively, frozen injury was performed by applying liquid nitrogen cooled tweezers tips directly onto the anterior sides of TA muscles. After 3 days, 20 μg of miR-133 antagomiR or control antagomiR in saline (50 μl) was intramuscularly injected into the same injured TA muscles (on right hindlimbs). To test efficacy of miR-133 ASO in intact muscles, saline, instead of Cardiotoxin, was injected to TA muscles before miR-133 ASO administration (FIGS. 4A, 4B). miR-133 antagomiR and scramble antagomiR were designed as previously described (Krutzfeldt et al., 2005).
The following antibodies and dilutions were used: anti-MyHC antibody (MF20, Developmental Studies Hybridoma Bank), 1:20 dilution; anti-Prdm16 antibody (generated in Dr. Patrick Seale's laboratory), 1:1,000 dilution; anti-Perilipin A antibody (Vala Sciences), 1:500 dilution; anti-Ucp1 antibody (Calbiochem), 1:200 dilution; anti-Laminin B2 antibody (Upstate), 1:500 dilution.
The following antibodies and dilutions were used: anti-Prdm16 antibody (generated in Dr. Patrick Seale's laboratory), 1:5,000 dilution; anti-Perilipin A antibody (Vala Sciences), 1:5,000 dilution; anti-Ucp1 antibody (Ab10983, Abeam), 1:1,000 dilution (FIGS. 4B, 5A, 7A); anti-Ucp1 antibody (Calbiochem), 1:1,000 dilution (FIG. 8C); anti-Ucp3 antibody (Ab3477, Abeam), 1:1,000 dilution; anti-Pgc1α antibody (Abeam), 1:1,000 dilution; anti-pan myosin heavy chain (MyHC) antibody (Developmental Studies Hybridoma Bank), 1:500; anti-DsRed (tdTomato) antibody (Ablab), 1:500; anti-α-Tubulin antibody (Sigma-Aldrich), 1:10,000 dilution.
Paraffin embedded tissue sections of TA muscles, inguinal white fat depots (igWAT) and epididymal white fat depots (epiWAT) were deparaffinized in CitriSolv. After rehydration, tissue sections were boiled in 0.01M citrate buffer (1.8 mM citric acid, 8.2 mM sodium citrate, pH 6.0) for 16 minutes. Endogenous peroxidase activity was neutralized by 0.3% H2O2 in 70% methanol Anti-Ucp1 antibody (Calbiochem) was 1:200 diluted and incubated with tissues sections overnight. IHC signals were developed by Vectastain ABC kit. […]

[1] = Indirect calorimetry, physical activity and food intake
Description: To assess whether miR-133 ASO treatment leads to increased whole-body energy expenditure, Applicant carried out indirect calorimetry studies at 2-3 months after ASO treatment on control- and miR-133 ASO treated mice (C57BL/6, male, individually caged, n=5 per treatment group per diet group; FIGS. 6C & 7B). […] Intriguingly, this amount of energy expenditure is coincident with the increase of mitochondrial respirometry-measured energy expenditure in miR-133 ASO treated TA muscles after adjustment with TA muscle mass (FIG. 7A; 0.3 cal·hour^−1·le^−1×75 mg=0.0225 kcal·hour^−1).
(§1) This discrepancy may be related to the abnormally low respiratory exchange ratio (˜0.76) in the control mice fed with HFD (FIG. 7D), which indicates an increased proportion of lipid oxidation in the control mice. […] In addition, miR-133 ASO treatment also led to much improved glucose tolerance in both diet groups (FIGS. 6E & 7F).
Whole-body O2 consumption and CO2 production was measured using an open circuit four-chamber indirect calorimetry system with automatic temperature and light controls (Columbus Instruments). Physical activities during indirect calorimetry was measured using infrared laser beam sets. Mice had access ad libitum to food and water in respiration chambers. Data were recorded for a 24 hour period with light between 06:00-18:00.

IPGTT glucose tolerance = details: both diet groups
Description: (B) Retarded body weight increase over a 16-week body weight monitoring time course in mice received miR-133 ASO treatment during TA muscle regeneration (n=6 per treatment group per diet group). […] Values of total energy expenditure were plotted without normalization to lean body mass. (D) Physical activities measured within light and dark cycles during indirect calorimetry (C) reveal increased physical activities within the dark cycle for miR-133 ASO treated mice (fed the RD). Physical activities are presented as arithmetic means of beam breaking events at X-, Y- and Z-dimensions. (E) IPGTT tests for C57BL/6 mice received either control- or miR-133 ASO treatment (fed the RD; n=6 per group). Error bars: S.E.M., asterisk: significant pair-wise comparison by t-test, *: p≦0.05, **: p≦0.01, ***: p≦0.001, n.s.: not significant.
as §1

[2] = regenerating TA muscle cross-sections

## *mA*mUmAmGmCmUmGmGmUmUmGmAmAmGmGmGmGmAmC*mC*mA*mA*mAChl [miR-133 ASO]
Ucp1; 3 months after a single injection in regenerating muscle
  repression of miR-133a/b and induction of Ucp1 mRNA, duration: long-lasting effects
Ucp1; C57BL/6 mice, regular diet or high fat diet, 2 months after treatment
  Ucp1 protein expression in treated muscles by immunoblotting: ectopically induced
Ucp1; cardiotoxin-injured TA muscle, one month
  Ucp1 mRNA within injected regenerating muscle: increased
Ucp1; frozen injury induced muscle regeneration
  Ucp1 mRNA level in treated TA muscle: similarly induced
Ucp1; regenerated TA muscles, Pax7-CreER, R26R-tdTomato mice
  Ucp1 protein by immunoblotting: specifically detected
Ucp1; regenerating TA muscle
  numbers of interstitial cells and ORO-stained cells between regenerating myofibers: markedly increased
Ucp1; [2]
  Prdm16pos cells per cross-section (average): 31.6 per cross-section
  Ucp1pos brown adipocytes per section (average): 15.6 per section
Ucp1; tdTomato lineage tracing
  share of Prdm16pos cells derived from satellite cells: 76.8%
  share of Ucp1pos brown adipocytes derived from satellite cells: 83.3%
[1]; HFD, dark cycle
  energy expenditure or physical activity compared to control mice: No significant increase
[1]; HFD, light cycle
  physical activities: without difference
  total energy expenditure: significantly increased
[1]; RD, dark cycle
  energy expenditure: conspicuously high
  physical activities: increased
[1]; RD, light cycle
  physical activities: without change
[1]; RD, light cycle, 2-3 months after treatment
  total energy expenditure: significant increase
[1]; both diet groups
  24-hour food intake versus control mice: comparable
IPGTT glucose tolerance
  glucose tolerance: much improved

Source: patent publication US9018188B2, “MicroRNA inhibitors” (Ottawa Hospital Research Institute, priority 2011, dated 2015)
